Columns and labels:
[1] = tested on: BALB/C mice bearing subcutaneous EMT-6 tumors; experiment: Tissue distribution of radioactivity after intravenous injection; format: in vivo; details: for Tissue to Blood Ratio, Intestine / Tissue to Blood Ratio, Kidney / Tissue to Blood Ratio, Liver / Tissue to Blood Ratio, Lung / Tissue to Blood Ratio, Muscle / Tissue to Blood Ratio, Stomach / Tissue to Blood Ratio, Tumor / Tissue to Blood Ratio, Bone / Tissue to Blood Ratio, Carcass / Tissue to Blood Ratio, Heart / Tissue to Blood Ratio, Spleen: i.v.; for deiodination (increase in thyroid radioactivity): longer periods (>4 h)
Excerpt: Tables 1 and 2 show the percent of injected IAZG and IAZA respectively per gram of wet tissue for selected tissues excised from BALB/C mice bearing EMT-6 tumors. This tumor model is known to have a high hypoxic fraction (0.33) (16). […] Hepatobiliary excretion may play a role in blood clearance as evidenced by elevated liver radioactivity and the appearance of activity in the intestine. Some oxidative or reductive metabolites of the 2-nitroimidazoles may also become bound to liver tissue, as was postulated in an in vivo study with ^14 C-MISO (6). This supposition is supported by the persistence of liver radioactivity at longer time periods. […] At 8 and 24 hours thyroid levels of IAZG are 7.2 and 30.9% of the total body activity and for IAZA they are 7.9 and 33.8% of total body activity. EXAMPLE 11 TISSUE DISTRIBUTION AND EXCRETION Tumor propagation of EMT-6 tumors in BALB/C mice was accomplished by subcutaneous injection of a cell suspension (10^5 cells in 0.1 mL) as described previously (10). Tumors reached about 10 mm in diameter (≈0.5 g) at 12 to 14 days, at which time each animal was given a bolus intravenous injection of ^125 I-labelled test drug via the tail vein (40 to 60 kBq in 0.1 mL). At set time periods the animals were asphyxiated with CO2 and exsanguinated via cardiac puncture. Tissues were dissected, weighed wet into vials and counted for ^125 I-activity. Whole-body activity was determined by summation of total activity in tissues and in residual carcass, and blood activity was determined from the blood aliquot, assuming blood to be 6.5% of the total body weight. EXAMPLE 12 Male BALB/c mice (20-25 g) were inoculated subcutaneously in the left flank with a suspension of murine EMT-6 cells (10^5 cells in 0.1 mL) (14). After 12 to 14 days, when the tumors reached the desired size (8-10 mm diameter), each mouse received a single intravenous (iv) injection of ^125 I-IAZA (59 kBq in 0.1 mL). […] Heart, lung, liver, spleen, muscle, bone, thyroid, kidney, stomach, small intestine, tail, tumor and skin were removed upon necropsy, weighed and analyzed for ^125 I using a Beckman Model 8000 gamma scintillation counter. The remaining carcass mass was also weighed and radioassayed.

EMT-6 cells = experiment: Hypoxic cell radiosensitizing ability (post-irradiation survival); format: cell-based, mouse; details: for sensitizer enhancement ratio (SER): 50 μM, 90% cell kill, hypoxic; for sensitisation to lethal effects of ionising radiation: in words
Description: Cell cultures were examined under oxic (air) and hypoxic incubation, with various concentrations of test drug, and at several doses of radiation.

[2] = Long term storage in solution; format: physicochemical
Excerpt: Both IAZA and IAZG are synthesised, in high yield, from commercial precursors (FIG. 1) and undergo high-yield isotope exchange reactions with radioiodine to produce the required radiolabelled test compounds. […] Therefore, the compounds were stored as a dry residue in multidose vials under refrigeration and were reconstituted with the appropriate solvent just prior to use. IAZP is similarly synthesised. It will be known to those skilled in the art that other radio halogens may be similarly employed in the exchange reaction.

O=[N+]([O-])c1nccn1[C@@H]1O[C@H](CI)[C@H](O)[C@H](O)[C@H]1O [IAZG, 1-(6-iodo-6-deoxy-β-D-galactopyranosyl)-2-nitroimidazole]
Tissue to Blood Ratio, Intestine ([1]; 0.25 h): 3.65 | Tissue to Blood Ratio, Kidney ([1]; 0.25 h): 8.58 | Tissue to Blood Ratio, Liver ([1]; 0.25 h): 3.00 | Tissue to Blood Ratio, Lung ([1]; 0.25 h): 1.51 | Tissue to Blood Ratio, Muscle ([1]; 0.25 h): 0.72 | Tissue to Blood Ratio, Stomach ([1]; 0.25 h): 1.79 | Tissue to Blood Ratio, Tumor ([1]; 0.25 h): 0.95 | Tissue to Blood Ratio, Intestine ([1]; 0.50 h): 3.19 | Tissue to Blood Ratio, Kidney ([1]; 0.50 h): 8.07 | Tissue to Blood Ratio, Liver ([1]; 0.50 h): 2.66 | Tissue to Blood Ratio, Lung ([1]; 0.50 h): 1.31 | Tissue to Blood Ratio, Muscle ([1]; 0.50 h): 0.63 | Tissue to Blood Ratio, Stomach ([1]; 0.50 h): 1.92 | Tissue to Blood Ratio, Tumor ([1]; 0.50 h): 1.31 | Tissue to Blood Ratio, Intestine ([1]; 1 h): 1.42 | Tissue to Blood Ratio, Kidney ([1]; 1 h): 5.56 | Tissue to Blood Ratio, Liver ([1]; 1 h): 1.82 | Tissue to Blood Ratio, Lung ([1]; 1 h): 0.90 | Tissue to Blood Ratio, Muscle ([1]; 1 h): 0.48 | Tissue to Blood Ratio, Stomach ([1]; 1 h): 1.64 | Tissue to Blood Ratio, Tumor ([1]; 1 h): 1.47 | Tissue to Blood Ratio, Intestine ([1]; 2 h): 1.48 | Tissue to Blood Ratio, Kidney ([1]; 2 h): 5.06 | Tissue to Blood Ratio, Liver ([1]; 2 h): 2.55 | Tissue to Blood Ratio, Lung ([1]; 2 h): 1.13 | Tissue to Blood Ratio, Muscle ([1]; 2 h): 0.62 | Tissue to Blood Ratio, Stomach ([1]; 2 h): 2.61 | Tissue to Blood Ratio, Tumor ([1]; 2 h): 1.45 | Tissue to Blood Ratio, Intestine ([1]; 4 h): 1.04 | Tissue to Blood Ratio, Kidney ([1]; 4 h): 4.00 | Tissue to Blood Ratio, Liver ([1]; 4 h): 1.51 | Tissue to Blood Ratio, Lung ([1]; 4 h): 1.16 | Tissue to Blood Ratio, Muscle ([1]; 4 h): 0.49 | Tissue to Blood Ratio, Stomach ([1]; 4 h): 1.85 | Tissue to Blood Ratio, Tumor ([1]; 4 h): 1.56 | Tissue to Blood Ratio, Intestine ([1]; 8 h): 1.05 | Tissue to Blood Ratio, Kidney ([1]; 8 h): 2.47 | Tissue to Blood Ratio, Liver ([1]; 8 h): 1.24 | Tissue to Blood Ratio, Lung ([1]; 8 h): 0.98 | Tissue to Blood Ratio, Muscle ([1]; 8 h): 0.36 | Tissue to Blood Ratio, Stomach ([1]; 8 h): 2.50 | Tissue to Blood Ratio, Tumor ([1]; 8 h): 1.34 | thyroid levels ([1]; 8 hours): 7.2 % of the total body activity | Tissue to Blood Ratio, Intestine ([1]; 24 h): 0.83 | Tissue to Blood Ratio, Kidney ([1]; 24 h): 1.52 | Tissue to Blood Ratio, Liver ([1]; 24 h): 1.32 | Tissue to Blood Ratio, Lung ([1]; 24 h): 1.26 | Tissue to Blood Ratio, Muscle ([1]; 24 h): 0.38 | Tissue to Blood Ratio, Stomach ([1]; 24 h): 0.87 | Tissue to Blood Ratio, Tumor ([1]; 24 h): 1.41 | thyroid levels ([1]; 24 hours): 30.9 % of the total body activity | injected dose in tumor at maximal tumor to blood ratio ([1]; at 4 h): 0.23 % of the injected dose | maximal tumor to blood ratio ([1]; at 4 h): 1.56 | deiodination (increase in thyroid radioactivity) [1]: evidence of deiodination at longer periods (>4 h) | sensitizer enhancement ratio (SER) (EMT-6 cells): about 1.8 | sensitisation to lethal effects of ionising radiation (EMT-6 cells): sensitise these cells to the lethal effects of ionising radiation | in vitro radiosensitizer efficiency, comparison (EMT-6 cells; vs azomycin nucleoside class): most efficient in vitro radiosensitizer of the azomycin nucleoside class produced to date | stability on long term storage in solution [2]: some decomposition of the pure compounds

O=[N+]([O-])c1nccn1[C@@H]1O[C@H](CI)[C@@H](O)[C@@H]1O [IAZA, 1-(5-iodo-5-deoxy-β-D-arabino-furanosyl)-2-nitroimidazole]
Tissue to Blood Ratio, Bone ([1]; 0.25 h): 0.50 | Tissue to Blood Ratio, Carcass ([1]; 0.25 h): 1.02 | Tissue to Blood Ratio, Heart ([1]; 0.25 h): 1.78 | Tissue to Blood Ratio, Intestine ([1]; 0.25 h): 2.06 | Tissue to Blood Ratio, Kidney ([1]; 0.25 h): 2.49 | Tissue to Blood Ratio, Liver ([1]; 0.25 h): 3.29 | Tissue to Blood Ratio, Lung ([1]; 0.25 h): 1.75 | Tissue to Blood Ratio, Muscle ([1]; 0.25 h): 1.17 | Tissue to Blood Ratio, Spleen ([1]; 0.25 h): 1.36 | Tissue to Blood Ratio, Stomach ([1]; 0.25 h): 1.66 | Tissue to Blood Ratio, Tumor ([1]; 0.25 h): 0.97 | Tissue to Blood Ratio, Bone ([1]; 0.50 h): 0.63 | Tissue to Blood Ratio, Carcass ([1]; 0.50 h): 1.18 | Tissue to Blood Ratio, Heart ([1]; 0.50 h): 1.64 | Tissue to Blood Ratio, Intestine ([1]; 0.50 h): 2.04 | Tissue to Blood Ratio, Kidney ([1]; 0.50 h): 2.61 | Tissue to Blood Ratio, Liver ([1]; 0.50 h): 3.29 | Tissue to Blood Ratio, Lung ([1]; 0.50 h): 1.74 | Tissue to Blood Ratio, Muscle ([1]; 0.50 h): 1.28 | Tissue to Blood Ratio, Spleen ([1]; 0.50 h): 1.38 | Tissue to Blood Ratio, Stomach ([1]; 0.50 h): 2.19 | Tissue to Blood Ratio, Tumor ([1]; 0.50 h): 1.60 | Tissue to Blood Ratio, Bone ([1]; 1 h): 0.63 | Tissue to Blood Ratio, Carcass ([1]; 1 h): 1.21 | Tissue to Blood Ratio, Heart ([1]; 1 h): 1.51 | Tissue to Blood Ratio, Intestine ([1]; 1 h): 2.52 | Tissue to Blood Ratio, Kidney ([1]; 1 h): 2.38 | Tissue to Blood Ratio, Liver ([1]; 1 h): 3.06 | Tissue to Blood Ratio, Lung ([1]; 1 h): 1.63 | Tissue to Blood Ratio, Muscle ([1]; 1 h): 1.19 | Tissue to Blood Ratio, Spleen ([1]; 1 h): 1.35 | Tissue to Blood Ratio, Stomach ([1]; 1 h): 2.15 | Tissue to Blood Ratio, Tumor ([1]; 1 h): 1.46 | Tissue to Blood Ratio, Bone ([1]; 2 h): 0.64 | Tissue to Blood Ratio, Carcass ([1]; 2 h): 1.60 | Tissue to Blood Ratio, Heart ([1]; 2 h): 1.13 | Tissue to Blood Ratio, Intestine ([1]; 2 h): 1.90 | Tissue to Blood Ratio, Kidney ([1]; 2 h): 1.98 | Tissue to Blood Ratio, Liver ([1]; 2 h): 2.39 | Tissue to Blood Ratio, Lung ([1]; 2 h): 1.26 | Tissue to Blood Ratio, Muscle ([1]; 2 h): 0.75 | Tissue to Blood Ratio, Spleen ([1]; 2 h): 1.02 | Tissue to Blood Ratio, Stomach ([1]; 2 h): 3.62 | Tissue to Blood Ratio, Tumor ([1]; 2 h): 2.80 | Tissue to Blood Ratio, Bone ([1]; 4 h): 0.60 | Tissue to Blood Ratio, Carcass ([1]; 4 h): 1.98 | Tissue to Blood Ratio, Heart ([1]; 4 h): 0.71 | Tissue to Blood Ratio, Intestine ([1]; 4 h): 1.80 | Tissue to Blood Ratio, Kidney ([1]; 4 h): 1.46 | Tissue to Blood Ratio, Liver ([1]; 4 h): 2.11 | Tissue to Blood Ratio, Lung ([1]; 4 h): 1.00 | Tissue to Blood Ratio, Muscle ([1]; 4 h): 0.53 | Tissue to Blood Ratio, Spleen ([1]; 4 h): 0.78 | Tissue to Blood Ratio, Stomach ([1]; 4 h): 4.02 | Tissue to Blood Ratio, Tumor ([1]; 4 h): 4.62 | Tissue to Blood Ratio, Bone ([1]; 8 h): 0.57 | Tissue to Blood Ratio, Carcass ([1]; 8 h): 2.00 | Tissue to Blood Ratio, Heart ([1]; 8 h): 1.57 | Tissue to Blood Ratio, Intestine ([1]; 8 h): 5.50 | Tissue to Blood Ratio, Kidney ([1]; 8 h): 2.43 | Tissue to Blood Ratio, Liver ([1]; 8 h): 3.36 | Tissue to Blood Ratio, Lung ([1]; 8 h): 2.36 | Tissue to Blood Ratio, Muscle ([1]; 8 h): 2.57 | Tissue to Blood Ratio, Spleen ([1]; 8 h): 1.29 | Tissue to Blood Ratio, Stomach ([1]; 8 h): 6.21 | Tissue to Blood Ratio, Tumor ([1]; 8 h): 8.71 | thyroid levels ([1]; 8 hours): 7.9 % of the total body activity | Tissue to Blood Ratio, Bone ([1]; 24 h): 0.59 | Tissue to Blood Ratio, Carcass ([1]; 24 h): 1.03 | Tissue to Blood Ratio, Heart ([1]; 24 h): 1.14 | Tissue to Blood Ratio, Intestine ([1]; 24 h): 1.11 | Tissue to Blood Ratio, Kidney ([1]; 24 h): 1.41 | Tissue to Blood Ratio, Liver ([1]; 24 h): 2.64 | Tissue to Blood Ratio, Lung ([1]; 24 h): 1.00 | Tissue to Blood Ratio, Muscle ([1]; 24 h): 0.54 | Tissue to Blood Ratio, Spleen ([1]; 24 h): 0.97 | Tissue to Blood Ratio, Stomach ([1]; 24 h): 1.81 | Tissue to Blood Ratio, Tumor ([1]; 24 h): 5.56 | thyroid levels ([1]; 24 hours): 33.8 % of the total body activity | injected dose in tumor at maximum tumor to blood ratio ([1]; at 8 h): 1.22 % of the injected dose | maximum tumor to blood ratio ([1]; at 8 h): 8.7 | tumor to blood ratio (text, FIG. 7) ([1]; at 24 h): > 5.5 | uptake in EMT-6 tumor tissue ([1]; in words): taken up preferentially in EMT-6 tumor tissue | deiodination (increase in thyroid radioactivity) [1]: evidence of deiodination at longer periods (>4 h) | sensitizer enhancement ratio (SER) (EMT-6 cells): ~1.4 | sensitisation to lethal effects of ionising radiation (EMT-6 cells): sensitise these cells to the lethal effects of ionising radiation | stability on long term storage in solution [2]: some decomposition of the pure compounds

From patent US5401490A, “Markers of tissue hypoxia” (priority 1989, dated 1995)
